Experimental findings from patent US12391679B2, “Benzamide-substituted bicyclic imidazo- and pyrazolo-fused -pyridine, -pyrimide, and -pyridazine compounds for treatment of inflammatory diseases” (ONCO3R Therapeutics BV, priority 2019, dated 2025) are described below.

Holding throughout (type): biochemical
Test [1] concerns the target T1, SIK1 (Homo sapiens, UniProt P57059).
T1 construct: purchased Carna Biosciences 02-131
The test can be described thus: ADP-Glo kinase assay, SIK1. The essentials:
(§1)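 Each SIK isoform is incubated with substrate and ATP for 2 h at room temperature, after which residual ATP is depleted and the ADP formed is quantified by luminescence.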
(ADP-Glo turns the ADP formed in a reaction into a luminescent signal.)

Test [2] deals with T2, SIK2 (Homo sapiens, UniProt Q9H0K1).
T2 construct: purchased ThermoFisher Scientific PV4792
T2 sequence (Q9H0K1 whole entry): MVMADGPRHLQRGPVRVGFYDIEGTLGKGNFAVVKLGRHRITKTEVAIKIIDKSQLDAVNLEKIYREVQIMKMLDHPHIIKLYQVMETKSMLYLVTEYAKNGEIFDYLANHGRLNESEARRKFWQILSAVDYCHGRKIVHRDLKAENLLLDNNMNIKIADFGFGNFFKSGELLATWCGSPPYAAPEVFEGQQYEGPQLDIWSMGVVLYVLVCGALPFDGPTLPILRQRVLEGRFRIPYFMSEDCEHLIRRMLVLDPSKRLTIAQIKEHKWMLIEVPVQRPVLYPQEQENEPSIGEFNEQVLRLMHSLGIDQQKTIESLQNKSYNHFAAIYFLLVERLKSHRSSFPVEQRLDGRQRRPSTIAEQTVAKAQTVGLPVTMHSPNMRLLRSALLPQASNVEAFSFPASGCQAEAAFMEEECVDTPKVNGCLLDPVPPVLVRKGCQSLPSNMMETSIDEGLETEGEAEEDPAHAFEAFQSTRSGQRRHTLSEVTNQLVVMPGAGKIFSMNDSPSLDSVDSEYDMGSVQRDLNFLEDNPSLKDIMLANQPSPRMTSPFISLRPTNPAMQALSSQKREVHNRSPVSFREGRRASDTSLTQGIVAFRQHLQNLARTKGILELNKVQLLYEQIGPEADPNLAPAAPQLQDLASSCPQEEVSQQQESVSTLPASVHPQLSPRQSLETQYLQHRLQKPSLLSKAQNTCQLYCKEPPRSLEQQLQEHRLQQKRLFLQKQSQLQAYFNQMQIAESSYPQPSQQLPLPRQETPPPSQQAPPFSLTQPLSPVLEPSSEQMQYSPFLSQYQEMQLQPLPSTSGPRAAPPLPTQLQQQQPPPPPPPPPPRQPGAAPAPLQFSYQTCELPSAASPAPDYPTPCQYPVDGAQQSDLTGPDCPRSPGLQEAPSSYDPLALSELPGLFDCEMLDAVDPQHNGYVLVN
The experiment in a line: ADP-Glo kinase assay, SIK2. The essentials: as §1

For test [3], the target named is T3, SIK3 (Homo sapiens, UniProt Q9Y2K2).
T3 construct: purchased SignalChem S12-11G-100
T3 sequence (Q9Y2K2 59-365 limits assumed): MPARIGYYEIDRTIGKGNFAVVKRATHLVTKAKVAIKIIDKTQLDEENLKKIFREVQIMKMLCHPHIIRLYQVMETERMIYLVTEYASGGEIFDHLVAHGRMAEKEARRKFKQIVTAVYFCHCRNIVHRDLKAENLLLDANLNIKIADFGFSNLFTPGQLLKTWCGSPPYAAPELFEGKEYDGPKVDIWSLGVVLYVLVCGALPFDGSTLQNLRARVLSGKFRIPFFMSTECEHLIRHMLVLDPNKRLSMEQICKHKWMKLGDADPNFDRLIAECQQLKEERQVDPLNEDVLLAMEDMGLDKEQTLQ
The test can be described thus: ADP-Glo kinase assay, SIK3. The essentials: as §1

A word on the IC50: it is the concentration at which inhibition is half-maximal.

The structures appear in SMILES notation.

T1 sequence (P57059 whole entry): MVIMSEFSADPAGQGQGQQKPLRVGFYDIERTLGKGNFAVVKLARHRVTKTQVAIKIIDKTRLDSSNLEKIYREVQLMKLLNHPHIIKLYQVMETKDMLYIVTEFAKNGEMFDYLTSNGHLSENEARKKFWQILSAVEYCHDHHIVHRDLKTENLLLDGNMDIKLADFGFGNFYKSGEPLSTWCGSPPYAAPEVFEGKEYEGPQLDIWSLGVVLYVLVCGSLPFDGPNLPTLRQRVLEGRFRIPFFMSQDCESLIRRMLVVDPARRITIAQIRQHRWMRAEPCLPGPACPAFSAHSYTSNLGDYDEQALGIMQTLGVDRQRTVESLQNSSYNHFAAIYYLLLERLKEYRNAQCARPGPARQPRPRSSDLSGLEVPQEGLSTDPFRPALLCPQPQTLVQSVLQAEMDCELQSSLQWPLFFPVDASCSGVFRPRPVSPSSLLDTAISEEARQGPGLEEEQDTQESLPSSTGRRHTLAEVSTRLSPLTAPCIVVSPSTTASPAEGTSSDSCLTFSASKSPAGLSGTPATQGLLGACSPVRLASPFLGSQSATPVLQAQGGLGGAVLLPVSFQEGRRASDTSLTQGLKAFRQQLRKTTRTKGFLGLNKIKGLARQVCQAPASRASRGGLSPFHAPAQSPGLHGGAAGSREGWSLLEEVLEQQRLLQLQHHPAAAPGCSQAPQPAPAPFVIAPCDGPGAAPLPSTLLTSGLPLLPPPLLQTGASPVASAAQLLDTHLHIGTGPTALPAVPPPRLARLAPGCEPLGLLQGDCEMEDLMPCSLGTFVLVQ

As for `COc1cc(-c2cnc3cc(C4(CO)CC4)ccn23)cc(OC(F)F)c1C(=O)NC1CC1` [Cpd 115, N-cyclopropyl-2-(difluoromethoxy)-4-[7-[1-(hydroxymethyl)cyclopropyl]imidazo[1,2-a]pyridin-3-yl]-6-methoxy-benzamide], the concentration for half-maximal inhibition (IC50) in test [1] lay within 100 to 500 nM; in test [2] it was 10 to 100 nM; in test [3] it was 0.01 to 10 nM.

As for `COc1cc(-c2cnc3cc(C(C)(C)OC)ncn23)cc(OC(F)F)c1C(=O)NC1CC1` [Cpd 118, N-cyclopropyl-2-(difluoromethoxy)-6-methoxy-4-[7-(1-methoxy-1-methyl-ethyl)imidazo[1,2-c]pyrimidin-3-yl]benzamide], the values for the IC50 in test [1], in test [2] and in test [3] were greater than 500 nM, greater than 500 nM and 10 to 100 nM, respectively.

Turning to `COc1cc(-c2cnc3cc(C(C)(C)O)ncn23)cc(OC(F)F)c1C(=O)NC1CC1` [Cpd 119, N-cyclopropyl-2-(difluoromethoxy)-4-[7-(1-hydroxy-1-methyl-ethyl)imidazo[1,2-c]pyrimidin-3-yl]-6-methoxy-benzamide], the IC50 in test [1] is greater than 500 nM; in test [2] it was greater than 500 nM; in test [3], 100 to 500 nM.

Consider `COc1cc(-c2cnc3cc(C4(C#N)CN(C(C)=O)C4)ccn23)cc(OC(F)F)c1C(=O)NC1CC1` [Cpd 122, 4-[7-(1-acetyl-3-cyano-azetidin-3-yl)imidazo[1,2-a]pyridin-3-yl]-N-cyclopropyl-2-(difluoromethoxy)-6-methoxy-benzamide], for which the IC50 in test [1] is greater than 500 nM; in test [2], greater than 500 nM; in test [3], 10 to 100 nM.

Consider `CCC(O)(CC)c1ccn2c(-c3cc(OC)c(C(=O)NC4CC4)c(OC(F)F)c3)cnc2c1` [Cpd 124, N-cyclopropyl-2-(difluoromethoxy)-4-[7-(1-ethyl-1-hydroxy-propyl)imidazo[1,2-a]pyridin-3-yl]-6-methoxy-benzamide], for which the IC50 was greater than 500 nM in test [1], greater than 500 nM in test [2] and 100 to 500 nM in test [3].

Consider `COc1cc(-c2cnc3cc(C4(C#N)COC4)ccn23)cnc1C(=O)NCC(F)(F)F` [Cpd 125, 5-[7-(3-cyanooxetan-3-yl)imidazo[1,2-a]pyridin-3-yl]-3-methoxy-N-(2,2,2-trifluoroethyl)pyridine-2-carboxamide], for which the 50% inhibitory concentration (IC50) in test [1], in test [2] and in test [3] was greater than 500 nM throughout.

For `CCC(CC)(OC)c1ccn2c(-c3cc(OC)c(C(=O)NC4CC4)c(OC(F)F)c3)cnc2c1` [Cpd 126, N-cyclopropyl-2-(difluoromethoxy)-4-[7-(1-ethyl-1-methoxy-propyl)imidazo[1,2-a]pyridin-3-yl]-6-methoxy-benzamide], the IC50 was greater than 500 nM in test [1], greater than 500 nM in test [2] and 10 to 100 nM in test [3].

Take `COc1cc(-c2cnc3cc(C(C)(C)C#N)ccn23)cnc1C(=O)NCC(F)(F)F` [Cpd 127, 5-[7-(1-cyano-1-methyl-ethyl)imidazo[1,2-a]pyridin-3-yl]-3-methoxy-N-(2,2,2-trifluoroethyl)pyridine-2-carboxamide]: the figures for the IC50 in test [1], in test [2] and in test [3] were greater than 500 nM, greater than 500 nM and 100 to 500 nM, respectively.

Turning to `COC(=O)C(F)(F)c1ccn2c(-c3cc(OC)c(C(=O)NC4CC4)c(OC(F)F)c3)cnc2c1` [Cpd 131, methyl 2-[3-[4-(cyclopropylcarbamoyl)-3-(difluoromethoxy)-5-methoxy-phenyl]imidazo[1,2-a]pyridin-7-yl]-2,2-difluoro-acetate], the IC50 is greater than 500 nM in test [1], greater than 500 nM in test [2] and 0.01 to 10 nM in test [3].

In the case of `COc1cc(-c2cnc3cc(C(F)(F)C(=O)O)ccn23)cc(OC(F)F)c1C(=O)NC1CC1` [Cpd 132, 2-[3-[4-(cyclopropylcarbamoyl)-3-(difluoromethoxy)-5-methoxy-phenyl]imidazo[1,2-a]pyridin-7-yl]-2,2-difluoro-acetic acid], the half-maximal inhibitory concentration (IC50) in test [1] lay within 100 to 500 nM; in test [2], 100 to 500 nM; in test [3], 0.01 to 10 nM.

Regarding `COc1cc(-c2cnc3cc(C(C)(O)C4CCOCC4)ccn23)cc(OC(F)F)c1C(=O)NC1CC1` (stereo not drawn) [Cpd 134, N-cyclopropyl-2-(difluoromethoxy)-4-[7-(1-hydroxy-1-tetrahydropyran-4-yl-ethyl)imidazo[1,2-a]pyridin-3-yl]-6-methoxy-benzamide], the values for the IC50 in test [1], in test [2] and in test [3] were greater than 500 nM, greater than 500 nM and 10 to 100 nM, respectively.

Turning to `COc1cc(-c2cnc3cc(C4(C(=O)N5CCOCC5)CC4)ccn23)cc(OC(F)F)c1C(=O)NC1CC1` [Cpd 141, N-cyclopropyl-2-(difluoromethoxy)-6-methoxy-4-[7-[1-(morpholine-4-carbonyl)cyclopropyl]imidazo[1,2-a]pyridin-3-yl]benzamide], the figures for the concentration for half-maximal inhibition (IC50) in test [1], in test [2] and in test [3] were greater than 500 nM, greater than 500 nM and 100 to 500 nM, respectively.

For the molecule `COCCNC(=O)C1(c2ccn3c(-c4cc(OC)c(C(=O)NC5CC5)c(OC(F)F)c4)cnc3c2)CC1` [Cpd 142, N-cyclopropyl-2-(difluoromethoxy)-6-methoxy-4-[7-[1-(2-methoxyethylcarbamoyl)cyclopropyl]imidazo[1,2-a]pyridin-3-yl]benzamide], the IC50 in test [1] was greater than 500 nM; in test [2], greater than 500 nM; in test [3], 10 to 100 nM.

`CCN(CC)C(=O)C1(c2ccn3c(-c4cc(OC)c(C(=O)NC5CC5)c(OC(F)F)c4)cnc3c2)CC1` [Cpd 143, N-cyclopropyl-4-[7-[1-(diethylcarbamoyl)cyclopropyl]imidazo[1,2-a]pyridin-3-yl]-2-(difluoromethoxy)-6-methoxy-benzamide]: the IC50 in test [1] is greater than 500 nM; in test [2] it was greater than 500 nM; in test [3], 100 to 500 nM.

For `COc1cc(-c2cnc3cc(C4(C(=O)N5CC(O)C5)CC4)ccn23)cc(OC(F)F)c1C(=O)NC1CC1` [Cpd 144, N-cyclopropyl-2-(difluoromethoxy)-4-[7-[1-(3-hydroxyazetidine-1-carbonyl)cyclopropyl]imidazo[1,2-a]pyridin-3-yl]-6-methoxy-benzamide], the IC50 was greater than 500 nM in test [1], greater than 500 nM in test [2] and 10 to 100 nM in test [3].

In the case of `COc1cc(-c2cnc3cc(C4(CN5CCOCC5)CC4)ccn23)cc(OC(F)F)c1C(=O)NC1CC1` [Cpd 145, N-cyclopropyl-2-(difluoromethoxy)-6-methoxy-4-[7-[1-(morpholinomethyl)cyclopropyl]imidazo[1,2-a]pyridin-3-yl]benzamide], the IC50 in test [1] was greater than 500 nM; in test [2], greater than 500 nM; in test [3] it was 100 to 500 nM.

Consider `COc1cc(-c2cnc3cc(C4(C(=O)NCCO)CC4)ccn23)cc(OC(F)F)c1C(=O)NC1CC1` [Cpd 147, N-cyclopropyl-2-(difluoromethoxy)-4-[7-[1-(2-hydroxyethylcarbamoyl)cyclopropyl]imidazo[1,2-a]pyridin-3-yl]-6-methoxy-benzamide], for which the 50% inhibitory concentration (IC50) in test [1] was greater than 500 nM; in test [2], greater than 500 nM; in test [3], 10 to 100 nM.

With `CCN(CC)C(C)c1ccn2c(-c3cc(OC)c(C(=O)NC4CC4)c(OC(F)F)c3)cnc2c1` (stereo not drawn) [Cpd 148, N-cyclopropyl-4-[7-[1-(diethylamino)ethyl]imidazo[1,2-a]pyridin-3-yl]-2-(difluoromethoxy)-6-methoxy-benzamide], the values for the IC50 in test [1], in test [2] and in test [3] were greater than 500 nM, greater than 500 nM and 10 to 100 nM, respectively.
